In general, CC50 refers to the concentration at which the toxic effect on the cells reaches its halfway point. Read a low CC50 as greater toxicity to the cells. For orientation: pEC50 means −log10 of the EC50, conventionally taken in molar units.

pEC50: −log10 of the molar value.

The nature of series [1]: Selectivity index, ratio of CC50 for human MT4 cells to EC50 for HIV2 ROD. Format: toxicity, cell-based. As to conditions: read-out: Ratio CC50/EC50.
Series [2] in a line: Cytotoxicity against human MT4 cells by MTT assay. Format: cell-based.
The subject of series [3] is Human immunodeficiency virus 2. Briefly: Antiviral activity against HIV2 ROD infected in human MT4 cells assessed as inhibition of virus-induced cytopathicity by MTT assay. The settings on record: Human immunodeficiency virus 2, ISOLATE ROD. Format: functional, organism-based. On the technique in general: Protection from cytopathic effect is a common read-out in antiviral testing.

Series [4] in a line: Selectivity index, ratio of CC50 for human MT4 cells to EC50 for HIV1 3B. The series is classed as toxicity, cell-based. As to conditions: read-out: Ratio CC50/EC50.
Series [5] has as its system Human immunodeficiency virus 1. In words: Antiviral activity against HIV1 3B infected in human MT4 cells assessed as inhibition of virus-induced cytopathicity by MTT assay. Format: functional, organism-based. The settings on record: Human immunodeficiency virus 1, 3B.
For series [6], the system named is Human immunodeficiency virus 1. In words: Antiviral activity against HIV1 RES056 harboring reverse transcriptase K103N/Y181C mutant infected in human MT4 cells assessed as inhibition of virus-induced cytopathicity by MTT assay. Format: functional, organism-based. As to conditions: Human immunodeficiency virus 1, RES056, MT4.
The nature of series [7]: Selectivity index, ratio of CC50 for human MT4 cells to EC50 for HIV1 RES056 harboring reverse transcriptase K103N/Y181C mutant. Format: toxicity, cell-based. The settings on record: read-out: Ratio CC50/EC50.

With `O=C(CSc1nncnc1-c1cccc2ccccc12)Nc1ccc(Cl)cc1Cl`, the selectivity ratio in series [1] and in series [4] was less than 1 throughout. Further, the CC50 in series [2] turned out to be 254 µM. Further, the pEC50 in series [3] and in series [5] was less than 3.60 throughout.
Regarding `Cc1ccccc1NC(=O)CSc1nncnc1-c1cccc2ccccc12`, the selectivity ratio is less than 1 in series [1], 194 in series [4] and less than 1 in series [7]. Besides, the CC50 in series [2] was found to be 158 µM. Also, the pEC50 in series [3] is less than 3.80; in series [6], less than 3.80; in series [5], 6.08.
For `COC(=O)c1ccc(NC(=O)CSc2nncnc2-c2cccc3ccccc23)c(Br)c1`, the selectivity ratio in series [1] is less than 1; in series [4], 2560; in series [7], 7. For the same compound, in series [2], it took 173 µM to reach half-maximal cytotoxicity (CC50). For the same compound, the pEC50 in series [3] is less than 3.76; in series [6] it was 4.60; in series [5], 7.16.
`CCOC(=O)c1ccc(NC(=O)CSc2nncnc2-c2cccc3ccccc23)c(Br)c1`: the values for the selectivity ratio in series [1], in series [4] and in series [7] were less than 1, 524 and less than 1, respectively. Besides, the CC50 in series [2] was determined as 105 µM. The negative logarithm of the EC50 (pEC50) is less than 3.98 in series [3], less than 3.98 in series [6] and 6.68 in series [5].
`CCOC(=O)c1ccc(NC(=O)CSc2nncnc2-c2cccc3ccccc23)c(Cl)c1`: the selectivity ratio is less than 1 in series [1], 729 in series [4] and less than 1 in series [7]. In series [2], the CC50 was determined as 150 µM. In addition, the pEC50 was less than 3.82 in series [3], less than 3.82 in series [6] and 6.69 in series [5].
For the compound `O=C(CSc1nncnc1-c1cccc2ccccc12)Nc1ccc([N+](=O)[O-])cc1Cl`, the selectivity ratio in series [1] and in series [4] was less than 1 each time. This compound came in with a CC50 in series [2] of 150 µM. The negative logarithm of the EC50 (pEC50) in series [3] and in series [5] was less than 3.82 in each case.
Regarding `O=C(CSc1nncnc1-c1cccc2ccccc12)N1CCc2ccccc2C1`, the results for the selectivity ratio in series [1], in series [4] and in series [7] were less than 1, 17 and less than 1, respectively. For the same compound, in series [2], the midpoint of cytotoxicity, the CC50, lay at 13 µM. Further, the pEC50 is less than 4.89 in series [3], less than 4.89 in series [6] and 6.12 in series [5].
`Cc1cnc(NC(=O)CSc2nncnc2-c2ccccc2Cl)c(Br)c1`: the selectivity ratio in series [1] and in series [4] was less than 1 each time. Besides, it took 144 µM to reach half-maximal cytotoxicity in series [2] (CC50). Further, the pEC50 in series [3] is less than 3.84; in series [5], less than 4.51.
Regarding `Cc1ccc2sc(NC(=O)CSc3nncnc3-c3ccccc3Cl)nc2c1`, the selectivity ratio in series [1] and in series [4] was less than 1 in each case. The same compound yielded a CC50 in series [2] of 137 µM. Moreover, the pEC50 in series [3] and in series [5] was less than 4.49 each time.
Turning to `O=C(CSc1nncnc1-c1ccccc1Cl)c1ccc(Br)cc1Br`, the selectivity ratio in series [1] and in series [4] was less than 1 each time. In series [2], this compound had a CC50 of 28 µM. Besides, the pEC50 in series [3] and in series [5] was less than 4.55 in each case.
On to `O=C(CSc1nncnc1-c1ccccc1Cl)c1ccc(Cl)c(Cl)c1`, for which the figures for the selectivity ratio in series [1] and in series [4] were less than 1 and 5, respectively. The half-maximal cytotoxic concentration (CC50) in series [2] is 33 µM. Moreover, the pEC50 was less than 4.48 in series [3], less than 4.48 in series [6] and 5.21 in series [5].
With `O=C(CSc1nncnc1-c1ccccc1Cl)N1CCCc2ccccc21`, the selectivity ratio in series [1] and in series [4] was less than 1 throughout. Further, the CC50 in series [2] was found to be 35 µM. Besides, the pEC50 in series [3] and in series [5] was less than 4.46 in each case.
For the compound `O=C(CSc1nncnc1-c1cccc2ccccc12)Nc1ccccc1Br`, the selectivity ratio is less than 1 in series [1], 503 in series [4] and no more than 2 in series [7]. Also, in series [2], the half-maximal cytotoxic concentration (CC50) amounted to 87 µM. Also, the figures for the pEC50 in series [3], in series [6] and in series [5] were less than 4.06, no more than 4.37 and 6.76, respectively.
Regarding `Cc1ccc(NC(=O)CSc2nncnc2-c2cccc3ccccc23)c(Br)c1`, the selectivity ratio in series [1] is less than 1; in series [4], 852; in series [7], 4. The midpoint of cytotoxicity in series [2], the CC50, lay at 166 µM. Further, the pEC50 in series [3] is less than 3.78; in series [6], 4.34; in series [5], 6.71.
Consider `Cc1ccc(NC(=O)CSc2nncnc2-c2cccc3ccccc23)c([N+](=O)[O-])c1`, for which the selectivity ratio in series [1] was less than 1; in series [4] it was 3170; in series [7], 28. In series [2], this compound gave a half-maximal cytotoxic concentration (CC50) of 147 µM. Also, the pEC50 is less than 3.83 in series [3], 5.28 in series [6] and 7.34 in series [5].
Consider `O=C(CSc1nncnc1-c1cccc2ccccc12)Nc1ccccc1[N+](=O)[O-]`, for which the selectivity ratio was less than 1 in series [1], 3260 in series [4] and 25 in series [7]. It took 142 µM to reach half-maximal cytotoxicity in series [2] (CC50). Moreover, the negative-log EC50 (pEC50) in series [3] was less than 3.85; in series [6], 5.25; in series [5] it was 7.37.
As to `CC(=O)c1ccc(NC(=O)CSc2nncnc2-c2cccc3ccccc23)c(Br)c1`, the selectivity ratio in series [1] was less than 1; in series [4] it was 2680; in series [7], 31. The compound further registered a CC50 in series [2] of 133 µM. The pEC50 in series [3] is less than 3.88; in series [6] it was 5.37; in series [5], 7.29.
In the case of `O=C(CSc1nncnc1-c1cccc2ccccc12)Nc1cccnc1Cl`, the values for the selectivity ratio in series [1], in series [4] and in series [7] were less than 1, 751 and 6, respectively. This compound also registered a CC50 in series [2] of 44 µM. The pEC50 in series [3] is less than 4.36; in series [6], 5.15; in series [5], 7.23.
Regarding `O=C(CSc1nncnc1-c1ccccc1Cl)Nc1ccccc1Cl`, the values for the selectivity ratio in series [1] and in series [7] were less than 1 and no more than 2, respectively. The pEC50 was less than 4.05 in series [3] and no more than 4.26 in series [6].
As to `CC(C)Nc1cccnc1N1CCN(C(=O)c2cc3cc(NS(C)(=O)=O)ccc3[nH]2)CC1` [DELAVIRDINE], the CC50 in series [2] was greater than 36 µM. Moreover, the pEC50 in series [6] was less than 4.44; in series [5] it was 7.49. In addition, the selectivity ratio in series [7] was less than 1.
On to `O=C1Nc2ccc(Cl)cc2[C@@](C#CC2CC2)(C(F)(F)F)O1` [EFAVIRENZ], for which the CC50 in series [2] was greater than 6.3 µM.
The compound `Cc1ccnc2c1NC(=O)c1cccnc1N2C1CC1` [NEVIRAPINE] came in with a CC50 in series [2] greater than 15 µM. Also, the pEC50 in series [6] was 4.96.
With `Nc1ccn([C@H]2CC[C@@H](CO)O2)c(=O)n1` [ZALCITABINE], the selectivity ratio in series [1] is greater than 74; in series [4] it was 68. In series [2], this compound displayed a CC50 greater than 95 µM. For the same compound, the results for the pEC50 in series [3] and in series [5] were 5.89 and 6.00, respectively.
Turning to `Cc1cn([C@H]2C[C@H](N=[N+]=[N-])[C@@H](CO)O2)c(=O)[nH]c1=O` [ZIDOVUDINE], the selectivity ratio in series [1] was 56900; in series [4], 8300; in series [7] it was 29600. For the same compound, the pEC50 was 8.40 in series [3] and 8.05 in series [6].

(Values after ChEMBL document CHEMBL2203176, “Structure-based bioisosterism design, synthesis and biological evaluation of novel 1,2,4-triazin-6-ylthioacetamides as potent HIV-1 NNRTIs” (Bioorg Med Chem Lett, 2012).)
